Measured values reported in ChEMBL document CHEMBL3132753, “Synthesis and biological evaluation of 2-acetamidothiophene-3-carboxamide derivatives against Leishmania donovani” (Medchemcomm, 2014).

Legend:
[1] = Cytotoxicity against human THP1 cells; format: cell-based; settings: THP-1 cells
Leishmania donovani [2] = assay: Antileishmanial activity against amastigote stage of Leishmania donovani MHOM/ET/67/HU3 infected in human THP1 cells assessed as parasite clearance after 3 days by Draq5 staining-based confocal microscopic analysis; format: functional, organism-based; settings: MHOM/ET/67/HU3, THP-1, 72 h
Leishmania donovani [3] = assay: Antileishmanial activity against promastigote stage of Leishmania donovani MHOM/ET/67/HU3 assessed as parasite viability after 48 hrs by resazurin dye-based assay; format: functional, organism-based; settings: MHOM/ET/67/HU3, 48 h
[4] = Selectivity index, ratio of CC50 for human THP1 cells to EC50 for amastigote stage of Leishmania donovani MHOM/ET/67/HU3; format: toxicity, cell-based; settings: THP-1 cells, read-out: Ratio CC50/EC50

Compound | CC50 [1] [µM] | EC50 (Leishmania donovani [2]) [µM] | EC50 (Leishmania donovani [3]) [µM] | selectivity ratio [4]
CC(C)(C)OC(=O)c1c(N)sc2c1CCCCC2 | > 50 | > 50 |  | 
COc1ccc(NC(=O)c2c(NC(C)=O)sc3c2CCCCC3)cc1 | > 50 | > 50 | > 50 | 
COc1ccc(CNC(=O)c2c(NC(=O)C(F)(F)F)sc3c2CCCCC3)cc1 | > 50 | > 50 | > 50 | 
COc1ccc(NC(=O)c2c(NC(=O)C(F)(F)F)sc(C)c2C)cc1 | > 50 | 10.1 | > 50 | > 4.95
COc1cccc(NC(=O)c2c(NC(=O)C(F)(F)F)sc3c2CCCCC3)c1 | 37.6 | 10.1 | 21.5 | 3.71
COc1ccc(NC(=O)c2ccsc2NC(=O)C(F)(F)F)cc1 | > 50 | > 50 | > 50 | 
COc1ccc(NC(=O)c2c(NC(=O)C(F)(F)F)sc3c2CCCCC3)cc1 | > 50 | 6.41 | > 50 | > 7.8
C[C@@H]1[C@H](O)[C@@H](C)/C=C/C=C/C=C/C=C/C=C/C=C/C=C/[C@H](O[C@@H]2O[C@H](C)[C@@H](O)[C@H](N)[C@@H]2O)C[C@@H]2O[C@](O)(C[C@@H](O)C[C@@H](O)[C@H](O)CC[C@@H](O)C[C@@H](O)CC(=O)O[C@H]1C)C[C@H](O)[C@H]2C(=O)O [AMPHOTERICIN B] | 7.57 | 0.25 | 0.18 | 30.2
O=C(Nc1ccc(OC(F)(F)F)cc1)c1c(NC(=O)C(F)(F)F)sc2c1CCCCC2 | 11.9 | 9.85 | > 50 | 1.2
COc1ccc(NC(=O)c2c(NC(=O)C(F)(F)F)sc3c2CCC3)cc1 | > 50 | > 50 |  | 
N#Cc1ccc(NC(=O)c2c(NC(=O)C(F)(F)F)sc3c2CCCCC3)cc1 | 9.11 | 8.53 | > 50 | 1.06
COc1ccc(NC(=O)c2c(NC(=O)C(F)(F)F)sc3c2CCCC3)cc1 | > 50 | 14.6 | > 50 | > 3.42
CCCCCCCCCCCCCCCCOP(=O)([O-])OCC[N+](C)(C)C [MILTEFOSINE] | 22.7 | 7.1 | 7.4 | 3.19
O=C(Nc1ccc(C(F)(F)F)cc1)c1c(NC(=O)C(F)(F)F)sc2c1CCCCC2 | 17.2 | 17.6 | > 50 | 0.9
CC(C)(C)NC(=O)c1c(NC(=O)C(F)(F)F)sc2c1CCCCC2 | > 50 | > 50 |  | 
COc1ccc(NC(=O)c2c(NC(=O)c3ccccc3)sc3c2CCCCC3)cc1 | > 50 | > 50 |  | 
Cc1ccc(NC(=O)c2c(NC(=O)C(F)(F)F)sc3c2CCCCC3)cc1 | > 50 | > 50 |  | 
COc1ccccc1NC(=O)c1c(NC(=O)C(F)(F)F)sc2c1CCCCC2 | > 50 | > 50 | 42 | 
COC(=O)Nc1sc2c(c1C(=O)Nc1ccc(OC)cc1)CCCCC2 | > 50 | > 50 |  | 
CC(=O)Nc1sc2c(c1C(=O)OC(C)(C)C)CCCCC2 | > 50 | > 50 |  | 
O=C(Nc1ccc(Cl)cc1)c1c(NC(=O)C(F)(F)F)sc2c1CCCCC2 | > 50 | > 50 |  | 
